Test results from patent publication US8501757B2, “Substituted phenylamine carboxamide analogs as mGluR5 negative allosteric modulators and methods of making and using the same” (priority 2009, dated 2013).
Like-named read-outs stand apart in the source and are kept apart here.

Assays:
rat mGluR5 [1] = molecular target: T1, rat mGluR5 (Rattus norvegicus, UniProt P31424); test: cell-based
Protocol: (§1) Human embryonic kidney (HEK) cells transfected with rat mGluR5 were plated in clear bottom assay plates for assay in a Functional Drug Screening System (FDSS). The cells were loaded with a Ca2+-sensitive fluorescent dye (e.g., Fluo-4), and the plates were washed and placed in the FDSS instrument. Test compound was applied to cells 3 seconds after baseline readings were taken. Cells were incubated with the test compounds for 140 seconds and then stimulated with an EC20 concentration of an mGluR5 agonist (e.g., glutamate, 3,5-dihydroxyphenylglycine, or quisqualate); 60 seconds later an EC80 concentration of agonist was added and readings taken for an additional 40 seconds. Data were collected at 1 Hz. […] Concentration response curves were generated using a four parameter logistical equation.
(§2) The above described assay was operated in two modes. In the first mode (utilizing a triple add protocol), a range of concentrations of the present compounds were added to cells, followed by two single fixed concentrations of agonist (EC20 followed by EC80). If a compound acted as a potentiator, an EC50 value for potentiation and a maximum extent of potentiation by the compound at this concentration of agonist was determined by non-linear curve fitting. If a compound acted as an antagonist, an IC50 value for antagonism and a maximum extent of antagonism by the compound at this concentration of agonist was determined by non-linear curve fitting. In the second mode (utilizing a double add protocol), several fixed concentrations of the present compounds were added to various wells on a plate, followed by a range of concentrations of agonist for each concentration of present compound; the EC50 values for the agonist at each concentration of compound were determined by non-linear curve fitting. A decrease in the EC50 value of the agonist with increasing concentrations of the present compounds (a leftward shift of the agonist concentration-response curve) is an indication of the degree of mGluR5 positive allosteric modulation at a given concentration of the present compound. An increase in the EC50 value of the agonist with increasing concentrations of the present compounds (a rightward shift of the agonist concentration-response curve) is an indication of the degree of mGluR5 antagonism at a given concentration of the present compound. The second mode also indicates whether the present compounds also affect the maximum response to mGluR5 to agonists.
(§3) The mGluR5 activity was determined using the metabotropic glutamate receptor activity assays in human embryonic kidney cells as described herein, wherein the human embryonic kidney cells were transfected with rat mGluR5. The mGluR5 activity data for some compounds are shown as the average of at least three experiments with the standard error in these cases. If no error is indicated for the mGluR5 activity, the values given represent the results from a single experiment or the average of two experiments.
(§4) The cells were loaded with a Ca2+-sensitive fluorescent dye (e.g., Fluo-4), and the plates were washed and placed in the FDSS instrument. Test compound was applied to cells 3 seconds after baseline readings were taken. Cells were incubated with the test compounds for 140 seconds and then stimulated with an EC20 concentration of an mGluR5 agonist (e.g., glutamate, 3,5-dihydroxyphenylglycine, or quisqualate); 60-80 seconds later an EC80 concentration of agonist was added and readings taken for an additional 40 seconds. Data were collected at 1 Hz.

human mGluR5 = human mGluR5 (Homo sapiens, UniProt P41594); test: cell-based
Protocol: The mGluR5 activity was determined using the metabotropic glutamate receptor activity assays in human embryonic kidney cells as described herein. The mGluR5 activity data for some compounds are shown as the average of at least three experiments with the standard error in these cases. If no error is indicated for the mGluR5 activity, the values given represent the results from a single experiment or the average of two experiments.
The cells were loaded with a Ca2+-sensitive fluorescent dye (e.g., Fluo-4), and the plates were washed and placed in the FDSS instrument. Test compound was applied to cells 3 seconds after baseline readings were taken. Cells were incubated with the test compounds for 140 seconds and then stimulated with an EC20 concentration of an mGluR5 agonist (e.g., glutamate, 3,5-dihydroxyphenylglycine, or quisqualate); 60-80 seconds later an EC80 concentration of agonist was added and readings taken for an additional 40 seconds. Data were collected at 1 Hz. […] Concentration response curves were generated using a four parameter logistical equation.
The above described assay was operated in two modes. In the first mode (utilizing a triple add protocol), a range of concentrations of the present compounds were added to cells, followed by two single fixed concentrations of agonist (EC20 followed by EC80). If a compound acted as a potentiator, an EC50 value for potentiation of the EC20 response and a maximum extent of potentiation by the compound at this concentration of agonist was determined by non-linear curve fitting. If a compound acted as an antagonist, an IC50 value for antagonism of the EC80 response and a maximum extent of antagonism by the compound at this concentration of agonist was determined by non-linear curve fitting. In the second mode (utilizing a double add protocol), several fixed concentrations of the present compounds were added to various wells on a plate, followed by a range of concentrations of agonist for each concentration of present compound; the EC50 values for the agonist at each concentration of compound were determined by nonlinear curve fitting. A decrease in the EC50 value of the agonist with increasing concentrations of the present compounds (a leftward shift of the agonist concentration-response curve) is an indication of the degree of mGluR5 positive allosteric modulation at a given concentration of the present compound. An increase in the EC50 value of the agonist with increasing concentrations of the present compounds (a rightward shift of the agonist concentration response curve) is an indication of the degree of mGluR5 antagonism at a given concentration of the present compound. The second mode also indicates whether the present compounds also affect the maximum response to mGluR5 to agonists.

rat mGluR5 [2] = molecular target: T1, rat mGluR5; settings: read-out: mGluR5, IC50 rat; HEK cells expressing rat mGluR5
Protocol: as §1, §2, §3, §4

T1 sequence (P31424 21-1203): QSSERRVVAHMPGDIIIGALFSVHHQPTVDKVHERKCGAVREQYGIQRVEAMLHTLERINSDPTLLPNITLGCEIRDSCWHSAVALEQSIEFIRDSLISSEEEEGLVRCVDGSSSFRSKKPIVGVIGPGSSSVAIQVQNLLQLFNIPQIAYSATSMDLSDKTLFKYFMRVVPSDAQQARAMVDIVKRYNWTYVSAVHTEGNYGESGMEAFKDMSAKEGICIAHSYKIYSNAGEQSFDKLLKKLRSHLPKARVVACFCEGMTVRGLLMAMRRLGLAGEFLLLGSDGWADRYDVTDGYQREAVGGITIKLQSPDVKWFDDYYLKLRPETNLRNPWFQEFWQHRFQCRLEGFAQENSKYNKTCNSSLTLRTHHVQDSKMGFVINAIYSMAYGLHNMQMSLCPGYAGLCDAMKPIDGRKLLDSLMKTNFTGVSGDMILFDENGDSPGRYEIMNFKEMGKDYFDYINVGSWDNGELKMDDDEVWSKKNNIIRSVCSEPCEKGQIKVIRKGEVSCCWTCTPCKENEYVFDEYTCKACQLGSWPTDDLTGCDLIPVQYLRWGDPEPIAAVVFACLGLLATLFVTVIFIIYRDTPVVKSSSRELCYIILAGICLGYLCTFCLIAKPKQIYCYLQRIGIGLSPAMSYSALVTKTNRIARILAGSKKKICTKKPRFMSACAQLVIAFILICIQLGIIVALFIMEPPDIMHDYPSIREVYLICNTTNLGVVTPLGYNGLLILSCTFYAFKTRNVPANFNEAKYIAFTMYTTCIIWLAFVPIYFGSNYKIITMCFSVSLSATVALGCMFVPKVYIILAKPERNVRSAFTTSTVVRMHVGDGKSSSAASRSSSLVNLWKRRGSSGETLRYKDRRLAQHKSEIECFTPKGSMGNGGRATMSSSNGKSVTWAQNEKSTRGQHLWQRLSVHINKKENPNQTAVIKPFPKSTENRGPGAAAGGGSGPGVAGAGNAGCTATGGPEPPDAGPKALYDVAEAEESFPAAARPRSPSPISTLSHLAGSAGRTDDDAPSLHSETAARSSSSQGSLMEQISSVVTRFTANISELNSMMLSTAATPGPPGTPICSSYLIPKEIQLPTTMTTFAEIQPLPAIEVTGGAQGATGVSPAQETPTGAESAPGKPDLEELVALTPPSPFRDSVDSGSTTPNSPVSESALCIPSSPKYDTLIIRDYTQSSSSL
Chain of human mGluR5 (P41594 21-1212): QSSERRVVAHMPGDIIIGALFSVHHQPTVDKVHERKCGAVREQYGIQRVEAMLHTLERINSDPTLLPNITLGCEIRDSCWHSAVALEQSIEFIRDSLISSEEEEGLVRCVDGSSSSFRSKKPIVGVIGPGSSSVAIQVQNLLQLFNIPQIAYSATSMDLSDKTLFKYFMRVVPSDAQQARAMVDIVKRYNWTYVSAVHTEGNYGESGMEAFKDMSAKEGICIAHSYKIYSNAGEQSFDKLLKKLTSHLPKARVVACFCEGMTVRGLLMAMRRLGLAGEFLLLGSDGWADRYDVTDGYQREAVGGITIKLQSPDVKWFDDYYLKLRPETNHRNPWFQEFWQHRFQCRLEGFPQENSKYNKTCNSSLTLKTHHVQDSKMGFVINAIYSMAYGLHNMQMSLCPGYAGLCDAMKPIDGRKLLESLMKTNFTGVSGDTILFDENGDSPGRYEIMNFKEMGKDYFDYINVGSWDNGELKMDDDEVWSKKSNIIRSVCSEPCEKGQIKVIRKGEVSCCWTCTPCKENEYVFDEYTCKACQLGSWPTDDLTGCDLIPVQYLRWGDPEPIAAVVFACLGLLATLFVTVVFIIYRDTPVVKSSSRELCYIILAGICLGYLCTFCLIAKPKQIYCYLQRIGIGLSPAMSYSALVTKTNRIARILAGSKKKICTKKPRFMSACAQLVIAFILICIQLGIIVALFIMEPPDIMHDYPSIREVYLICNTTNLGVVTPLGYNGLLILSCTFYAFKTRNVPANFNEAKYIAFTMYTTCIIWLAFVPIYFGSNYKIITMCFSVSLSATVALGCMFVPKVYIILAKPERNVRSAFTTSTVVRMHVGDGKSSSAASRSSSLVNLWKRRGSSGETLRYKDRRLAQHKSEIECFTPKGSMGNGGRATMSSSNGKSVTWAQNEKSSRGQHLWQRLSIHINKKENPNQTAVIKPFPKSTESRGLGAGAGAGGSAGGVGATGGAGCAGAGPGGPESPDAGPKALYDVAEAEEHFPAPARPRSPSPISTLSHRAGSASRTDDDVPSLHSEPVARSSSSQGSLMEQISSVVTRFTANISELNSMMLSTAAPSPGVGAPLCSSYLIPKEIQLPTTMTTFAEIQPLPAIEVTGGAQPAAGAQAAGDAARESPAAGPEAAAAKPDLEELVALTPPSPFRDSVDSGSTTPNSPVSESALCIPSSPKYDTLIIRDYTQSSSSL

SMILES | IC50 (rat mGluR5 [1]) | also measured
Cc1ncccc1Oc1cccc(NC(=O)c2cccc(Cl)c2)c1 | 2230 nM | 
COc1cccc(C(=O)Nc2cccc(Oc3cccnc3)c2)n1 | 8340 nM | 
O=C(Nc1cccc(Oc2cccnc2)c1)c1cscn1 | 1270 nM | 
O=C(Nc1cccc(Oc2cccnc2)c1)c1nccs1 | 1600 nM | 
O=C(Nc1cc(Oc2cccnc2)cc(C(F)(F)F)c1)c1cccc(Cl)c1 | > 30000 nM | 
Cc1ccc(Oc2cc(Cl)cc(NC(=O)c3cccc(Cl)c3)c2)cn1 | > 10000 nM | 
O=C(Nc1cccc(Oc2cncnc2)c1)c1cccc(Cl)c1 | 75 ± 13 nM | 
CCN(c1cccnc1)c1cccc(NC(=O)c2cccc(Cl)c2)c1 | 111 ± 21 nM | 
CCCN(c1cccnc1)c1cccc(NC(=O)c2cccc(Cl)c2)c1 | 5490 nM | 
CN(c1cccnc1)c1cccc(NC(=O)c2cccc(Br)c2)c1 | 83 nM | 
O=C(Nc1cc(Cl)cc(Oc2cncc(F)c2)c1)c1cccc(Cl)n1 | 5370 nM | 
O=C(Nc1cccc(Oc2cncnc2)c1)c1cccc(Br)c1 | 53 nM | 
O=C(Nc1cc(F)cc(Oc2cncnc2)c1)c1cccc(F)c1 | 288 nM | 
N#Cc1ccc(F)c(C(=O)Nc2cc(F)cc(Oc3cncnc3)c2)c1 | 87 nM | 
O=C(Nc1cc(F)c(F)c(Oc2cncnc2)c1)c1ccc(F)cn1 | 5420 nM | 
CC(C)Oc1ccnc(C(=O)Nc2cc(F)cc(Oc3cncnc3)c2)c1 | 230 nM | 

SMILES | IC50 (rat mGluR5 [1]) | also measured
COc1ccnc(C(=O)Nc2cc(C#N)cc(Oc3cncnc3)c2)c1 | 63 nM | 
CCN(c1cncnc1)c1cccc(NC(=O)c2cccc(C#N)c2)c1 | 43 nM | 
CN(c1cncnc1)c1cccc(NC(=O)c2cccc(C#N)c2)c1 | 84 ± 14 nM | 
CN(c1cncnc1)c1cccc(NC(=O)c2cccc(F)c2)c1 | 21 ± 4 nM | 
COc1cccc(C(=O)Nc2cccc(N(C)c3cncnc3)c2)c1 | 108 ± 32 nM | 
CN(c1cncnc1)c1cccc(NC(=O)c2cccc(C(F)(F)F)n2)c1 | 34 ± 7 nM | 
CN(c1cncnc1)c1cc(Cl)cc(NC(=O)c2cccc(Cl)c2)c1 | 138 nM | 
CN(c1cncnc1)c1cc(NC(=O)c2cccc(F)n2)ccc1F | 8.6 nM | 
CN(c1cncnc1)c1cc(NC(=O)c2cccc(F)c2)cc(F)c1F | 28 nM | 
N#Cc1cc(NC(=O)c2cc(Cl)ccn2)cc(Oc2cncnc2)c1 | 16 nM | 
O=C(Nc1cc(Cl)cc(Oc2cncnc2)c1)c1cccc(Cl)c1 |  | IC50 (human mGluR5): 30 nM
N#Cc1cccc(C(=O)Nc2cccc(Oc3cncc(F)c3)c2)c1 |  | IC50 (human mGluR5): 249 nM
N#Cc1cc(NC(=O)c2cccc(Br)c2)cc(Oc2cncnc2)c1 |  | IC50 (human mGluR5): 94 nM
CN(c1cncnc1)c1cc(NC(=O)c2cccc(Cl)c2)ccc1F |  | IC50 (human mGluR5): 11 nM
N#Cc1cccc(C(=O)Nc2cc(F)cc(Oc3cncnc3)c2)c1 [drawing 550] | 61 ± 15 nM | 
N#Cc1cccc(C(=O)Nc2cc(F)cc(Oc3cncnc3)c2)c1 [drawing 665] |  | IC50 (human mGluR5): 60 nM; IC50 (rat mGluR5 [2]): 61 ± 15 nM

Continued, in another order:

IC50 (rat mGluR5 [1]) | SMILES | also measured
286 nM | Cc1cccc(C(=O)Nc2cccc(Oc3cccnc3)c2)c1 | 
5990 nM | O=C(Nc1cccc(Oc2cccnc2)c1)c1cccc(C(F)(F)F)c1 | 
536 nM | N#Cc1cccc(C(=O)Nc2cccc(Oc3cccnc3)c2)c1 | 
6250 nM | O=C(Nc1cccc(Oc2cccnc2)c1)c1ccc(F)c(Cl)c1 | 
3530 nM | O=C(Nc1cccc(Oc2cccnc2)c1)c1cccc(F)n1 | 
4210 nM | Cc1nc(C(=O)Nc2cccc(Oc3cccnc3)c2)cs1 | 
465 nM | Cc1csc(C(=O)Nc2cccc(Oc3cccnc3)c2)n1 | 
63 ± 9 nM | N#Cc1cccc(C(=O)Nc2cc(Cl)cc(Oc3cncnc3)c2)c1 | 
6870 nM | Cc1cccc(C(=O)Nc2cc(Cl)cc(Oc3ccc(C)nc3)c2)c1 | 
31 ± 5 nM | CN(c1cccnc1)c1cccc(NC(=O)c2cccc(Cl)c2)c1 | 
> 10000 nM | O=C(Nc1cccc(Oc2cccnc2)c1)c1cccc(Cl)c1F | 
155 nM | N#Cc1cccc(C(=O)Nc2cccc(Oc3cncc(Cl)c3)c2)c1 | 
124 nM | O=C(Nc1cccc(Oc2cncc(F)c2)c1)c1cccc(Br)c1 | 
580 nM | N#Cc1cccc(C(=O)Nc2cccc(Oc3cncnc3)c2)c1 | 
443 nM | N#Cc1cc(NC(=O)c2cccc(C#N)c2)cc(Oc2cncnc2)c1 | 
2560 nM | O=C(Nc1cc(F)cc(Oc2cncnc2)c1)c1cccc(F)n1 | 
311 nM | COc1cccc(C(=O)Nc2cc(F)cc(Oc3cncnc3)c2)c1 | 
1690 nM | O=C(Nc1cc(F)c(F)c(Oc2cncnc2)c1)c1cc(F)ccn1 | 
1640 nM | N#Cc1cc(C(=O)Nc2cc(F)cc(Oc3cncnc3)c2)ccc1F | 
417 nM | O=C(Nc1cc(F)cc(Oc2cncnc2)c1)c1cccc(OC(F)(F)F)c1 | 

IC50 (rat mGluR5 [1]) | SMILES | also measured
388 nM | CCN(c1cccnc1)c1cc(F)cc(NC(=O)c2cccc(Cl)c2)c1 | 
656 nM | CCN(c1cccnc1)c1cc(F)cc(NC(=O)c2cccc(Br)c2)c1 | 
208 nM | CCN(c1cccnc1)c1cccc(NC(=O)c2cccc(Br)c2)c1 | 
120 nM | CCN(c1cccnc1)c1cccc(NC(=O)c2cccc(C#N)c2)c1 | 
> 10000 nM | CN(c1cncc(Cl)c1)c1cccc(NC(=O)c2cccc(Cl)c2)c1 | 
> 10000 nM | CN(c1cncc(Cl)c1)c1cccc(NC(=O)c2cccc(C#N)c2)c1 | 
36 nM | CN(c1cncnc1)c1cc(NC(=O)c2cccc(Br)c2)ccc1Cl | 
59 nM | CN(c1cncnc1)c1cc(NC(=O)c2cccc(C#N)c2)ccc1Cl | 
14 nM | CN(c1cncnc1)c1cc(NC(=O)c2cccc(Br)c2)ccc1F | 
51 nM | CN(c1cncnc1)c1cc(NC(=O)c2cccc(C#N)c2)ccc1F | 
80 nM | CN(c1cncnc1)c1ccc(F)c(NC(=O)c2cccc(Cl)c2)c1 | 
127 nM | CN(c1cncnc1)c1cc(F)cc(NC(=O)c2cccc(F)c2)c1 | 
16 nM | CN(c1cncnc1)c1cc(NC(=O)c2cccc(F)c2)ccc1Cl | 
9.8 nM | CN(c1cncnc1)c1cc(NC(=O)c2cccc(F)c2)ccc1F | 
148 nM | CN(c1cncnc1)c1cc(NC(=O)c2cccc(C#N)c2)cc(F)c1F | 
> 10000 nM | CC(C)CN(c1cncnc1)c1cc(NC(=O)c2cccc(Cl)c2)ccc1Cl | 
84 nM | [2H]C([2H])([2H])N(c1cncnc1)c1cc(NC(=O)c2cccc(C#N)c2)ccc1Cl | 
80 nM | CN(c1cncnc1)c1cc(NC(=O)c2cscn2)cc(F)c1F | 
2910 nM | CN(c1cncnc1)c1cc(NC(=O)c2cccc(O)n2)ccc1F | 
17 nM | N#Cc1cc(NC(=O)c2cc(Br)ccn2)cc(Oc2cncnc2)c1 | 
